In brackets after ≈: the same amount, converted by molar mass. Activity calls are given as the source filed them. The calls are words filed in the database; no cut-off is given here.
How the values were obtained:
Plasmodium falciparum [1] = assay: Antimalarial activity against chloroquine-resistant Plasmodium falciparum K1 after 24 hrs by hypoxanthine incorporation assay; assay type: functional, organism-based; details: K1, 24 h
Plasmodium falciparum [2] = assay: Antimalarial activity against chloroquine-sensitive Plasmodium falciparum NF54 after 24 hrs by hypoxanthine incorporation assay; assay type: functional, organism-based; details: NF54, 24 h
[3] = Plasma protein binding in human by reverse phase gradient HPLC analysis; assay type: ADME, cell-free; details: read-out: PPB (converted)
[4] = Half life in human liver microsomes at 1 uM; assay type: ADME, Microsome
[5] = Partition coefficient, log D of the compound at pH 7.4 by phase gradient HPLC analysis; assay type: physicochemical; details: octanol/water
[6] = Kinetic solubility of the compound in phosphate buffer after 30 mins by nephelometry at pH 6.5; assay type: physicochemical; details: read-out: Kinetic_solubility
[7] = Intrinsic clearance in human liver microsomes at 1 uM up to 60 mins; assay type: ADME, Microsome; details: read-out: CLH
Plasmodium berghei [8] = assay: Antimalarial activity against Plasmodium berghei ANKA expressing GFP infected in Sprague-Dawley rat assessed as host survival at 30 mg/kg, po administered as single dose measured 6 days post-infection; assay type: functional, organism-based; parameters: dose 30 mg/kg
Plasmodium berghei [9] = assay: Antimalarial activity against Plasmodium berghei ANKA expressing GFP infected in Sprague-Dawley rat assessed as mean survival days of host at 30 mg/kg, po administered as single dose; assay type: functional
Plasmodium berghei [10] = assay: Antimalarial activity against Plasmodium berghei ANKA expressing GFP infected in Sprague-Dawley rat assessed as reduction in parasitemia at 50 mg/kg, po administered as 4 doses measured on day 4 post-infection by flow cytometry; assay type: functional; parameters: scale not given: the % may be the effect or the level left
Plasmodium berghei [11] = assay: Antimalarial activity against Plasmodium berghei ANKA expressing GFP infected in Sprague-Dawley rat assessed as reduction in parasitemia at 30 mg/kg, po administered as single dose measured on day 3 post-infection by flow cytometry; assay type: functional; parameters: scale not given: the % may be the effect or the level left
Plasmodium berghei [12] = assay: Antimalarial activity against Plasmodium berghei ANKA expressing GFP infected in Sprague-Dawley rat assessed as mean survival days of host at 100 mg/kg, po administered as single dose; assay type: functional
Plasmodium berghei [13] = assay: Antimalarial activity against Plasmodium berghei ANKA expressing GFP infected in Sprague-Dawley rat assessed as reduction in parasitemia at 100 mg/kg, po administered as single dose measured on day 3 post-infection by flow cytometry; assay type: functional; parameters: scale not given: the % may be the effect or the level left
Plasmodium berghei [14] = assay: Antimalarial activity against Plasmodium berghei ANKA expressing GFP infected in Sprague-Dawley rat assessed as mean survival days of host at 50 mg/kg, po administered as 4 doses; assay type: functional
Plasmodium falciparum [15] = assay: Antimalarial activity against ring stage Plasmodium falciparum 3D7 at 1.82 uM after 72 hrs by DAPI-staining based confocal microscopy; assay type: functional
Plasmodium falciparum [16] = assay: Antimalarial activity against ring stage Plasmodium falciparum Dd2 at 1.82 uM after 72 hrs by DAPI-staining based confocal microscopy; assay type: functional

Structure (SMILES)	IC50 (Plasmodium falciparum [1]) [nM]	IC50 (Plasmodium falciparum [2]) [nM]	half-life at 1 µM [4] [h]	chromatographic logD [5]	solubility kinetic at 0.5 h [6] [µg/mL]	microsomal CLint at 1 µM [7] [µL/min/mg]	further results
Cc1nc2cc(-c3cc(-c4ccc(S(C)(=O)=O)cc4)cnc3N)ccc2s1	330	390					
CS(=O)(=O)c1ccc(-c2cnc(N)c(-c3ccc(-n4cccn4)cc3)c2)cc1	220	230					
CS(=O)(=O)c1ccc(-c2cnc(N)c(-c3cccc(C(F)(F)F)c3)c2)cc1	90	110	> 4.17	3.3	3.1 (≈ 7.9 µM)	< 7	fraction unbound [3]: 0.059
CS(=O)(=O)c1ccc(-c2cnc(N)c(-c3ccoc3)c2)cc1	1120	1130					
CS(=O)(=O)c1ccc(-c2cnc(N)c(-c3ccc(N4CCOCC4)cc3)c2)cc1	2400	2460					
CS(=O)(=O)c1ccc(-c2cnc(N)c(-c3ccc(C(N)=O)cc3)c2)cc1	30	30	> 5.83	1.5	25 (≈ 68 µM)	< 5	Activity (Plasmodium berghei [8]): inactive; fraction unbound [3]: 0.216; MSD (Plasmodium berghei [9]): 3 days; Activity (Plasmodium berghei [10]): 66%; Activity (Plasmodium berghei [11]): <40%; MSD (Plasmodium berghei [12]): 7 days; Activity (Plasmodium berghei [13]): 64%; MSD (Plasmodium berghei [14]): 7 days
CS(=O)(=O)c1ccc(-c2cnc(N)c(-c3ccc(S(C)(=O)=O)cc3)c2)cc1	80	80	> 5.83	2	6.3 (≈ 15.7 µM)	< 5	Activity (Plasmodium berghei [10]): 99.6%; MSD (Plasmodium berghei [14]): 15 days
CS(=O)(=O)c1ccc(-c2cnc(N)c(-c3ccc(C(F)(F)F)c(F)c3)c2)cc1	58	78	2.05	3.1	1.6 (≈ 3.9 µM)	14	fraction unbound [3]: 0.052
COc1ncc(-c2cc(-c3ccc(S(C)(=O)=O)cc3)cnc2N)cn1	280	260					
Cc1ccc(-c2cc(-c3ccc(S(C)(=O)=O)cc3)cnc2N)c2cccnc12	33	36	1.77	2.6	6.3 (≈ 16.2 µM)	16	fraction unbound [3]: 0.056
CS(=O)(=O)c1ccc(-c2cnc(N)c(-c3ccc(N4CCCC4)nc3)c2)cc1	540	456					
COc1ccc(-c2cnc(N)c(-c3ccc(O)c(OC)c3)c2)cc1							Activity (Plasmodium falciparum [15]): 50%; Activity (Plasmodium falciparum [16]): 50%
CS(=O)(=O)c1ccc(-c2cnc(N)c(-c3cccnc3)c2)cc1	818	575					
CS(=O)(=O)c1ccc(-c2cnc(N)c(-c3cccc(C(=O)NCCO)c3)c2)cc1	634	603					
CS(=O)(=O)c1ccc(-c2cnc(N)c(-c3cccc(OC(F)(F)F)c3)c2)cc1	180	190					
CN(C)CCNC(=O)c1ccc(-c2cc(-c3cc(F)c(F)c(F)c3)cnc2N)cc1							Activity (Plasmodium falciparum [15]): 50%; Activity (Plasmodium falciparum [16]): 50%
